We go through one compound from patent EP0960886B1, “Peptide T and related peptides in the treatment of inflammation, including multiple sclerosis” (priority 1992, dated 1993).

The structures appear in SMILES notation. Where “and” joins values, the source holds several entries; their conditions need not be identical. Equal values may be shown once.

One data set relates to LPS. Description: LPS-induced inflammation in mice (Example 5). In kind it is in vivo, balb/c mice. Details: key: indicated on a scale of (-) to (+++); indicated on a scale of (-) to (+++); indicated on a scale of (-) to (+++). The procedure:
Normal balb/c mice (female, 12 weeks) were administered LPS (250 µg, E. coli K-235, Sigma cat. no. L-2018) at time zero. One group of mice (50 animals) were then treated at 30 minutes intervals by i.p. injections of bovine serum albumin (BSA) (Sigma cat. no. 6793) dissolved in pyrogen-free, sterile, isotonic water (2.5 mg BSA per animal per injection, each injection containing 100 µl).
The second group of mice (50 animals) were treated at 30 minutes intervals by i.p. injections of Peptide T (Carlbiotech A/S batch 109401) dissolved in pyrogen-free, sterile, isotonic water (2.5 mg Peptide T per animal per injection, each injection 100 µl).
Glucose levels were determined on blood samples after 3 hours. Subjective parameters such as secretion from the eye, diarrhoea and general well being are indicated on a scale of (-) to (+++).

For data set [1], the system named is Human umbilical vein endothelial cells. Description: TNF-induced tissue factor expression on endothelial cells, ELISA (Example 6). The note with it: 100 units/ml human recombinant TNF, 4 h; Peptide T 0.5 to 100 µg/ml; triplicate cultures. In kind it is cell-based. The procedure: Human umbilical vein endothelial cells were cultured in M199 medium supplemented with 10% foetal calf serum, endothelial cell growth factor, penicillin, streptomycin and L-glutamine in 96-well dishes using a modification of the procedure of Bevilaqua et al, Proc. Natl. Acad. Sci. USA 83 4533 (1986)). TNF treatment of cultures (100 units.ml) was for 4 h at 37°C in the presence of growth medium, after which the cells were washed and fixed. Cultures were, also treated with Peptide T + TNF or Peptide T alone. In these cultures Peptide T was at a concentration which ranged from 0.5 to 100 µg/ml. Tissue factor expression by the endothelial cells treated with TNF with or without peptide T was determined in an ELISA using a monoclonal antibody which neutralises the activity of human tissue factor (Carlbiochem A/S). Bound anti-tissue factor antibody was detected using peroxidase-conjugated rabbit anti-mouse Ig and the substrate ABST. Colour intensity was determined by the optical density of each well at 405nm.
On the technique in general: In an ELISA, binding on a coated surface is turned into a signal by an enzyme label.

A further data set deals with TNFα. Description: Production of TNFα by Con A stimulated PBMC, radioimmune assay (Example 12). The data set is classed as cell-based, human. The procedure:
Production of Tumour Necrosis Factor α (TNFα): 5x10^6 PBMC/ml were incubated in the presence of Con A (6.25µg/ml) for 48 hours in a humid atmosphere, 5% CO2, 37°C. Peptide T (10^-9M) was added at t=0 and 24 hours. At the end of incubation, SEPHADEX™ G25 (Pharmacia) was added (10mg/ml) and incubated for 10 minutes to remove mitogen. PBMC and SEPHADEX were pelleted by centrifugation and the supernatant tested for levels of TNFα using a TNFα radioimmune assay kit from Amersham. Samples were analysed in duplicate.

Data set [2] is described as follows: Pharmacokinetics of Peptide T in vivo. As to conditions: following administration in vivo.
For the next data set, the system named is PBMC. Briefly: Mixed lymphocyte reaction (Example 13). The data set is classed as cell-based, human.
The test system of the next data set is K562 target cells. Briefly: Macrophage cytotoxicity assay (two step, K562 target cells). In kind it is cell-based. As for the experimental part:
The MO/MAC cytotoxicity assay is a two step assay. After isolation of adherent cells (mainly MO/MAC) from PBMC, MO/MAC are activated by lymphokines (including IFN gamma and LPS. Subsequent to washing which removes activators, ^3H-thymidine labelled K562 target cells were added to activated MO/MAG and incubated for 3 days. The degree of cytotoxicity was proportional to the amount of radioactive label released into the culture supernatant, is shown in the following scheme : [drawing 8]

A further data set deals with K562 cells. Briefly: MO/MAC supernatant cytotoxicity against K562 cells. In kind it is cell-based. As for the experimental part:
Supernatant (SN) of activated MO/MAC were collected from monolayers of PBMC derived adherent cells that had been exposed to LPS for 23 hours. This SN was tested for cytolytic activity against ^3H-thymidine labelled K562 cells in a 48 hour, 37°C cytotoxicity assay. SN were stored at 4°C overnight or stored frozen at -20°C for longer periods before using.
The ability of MO/MAC culture SN to lyse target K562 cells was determined in the presence of Peptide T. MO/MAC culture SN was used at a final dilution of 1:6 in the culture well.

In another data set the test system is IL-1. Description: Serum IL-1 by RIA in patients with HIV disease. The data set is classed as in vivo, human. The note with it: one line per patient with HIV disease. From the text:
However, neopterin levels were elevated prior to Peptide T administration whereas serum IL-1 levels were normal.

A further data set concerns human neutrophils. Briefly: TNF-induced neutrophil chemiluminescence (lucigenin-dependent). The note with it: Figure 10. The data set is classed as cell-based. As for the experimental part: Neutrophils. Neutrophils were isolated from whole blood from healthy blood donors. Separation was achieved by the rapid-single-step method of centrifugation of whole blood on FICOLL-HYPAQUE™. These were >99% viable and usually >98% pure.
Peptides and TNF. TNF was a recombinant product produced in E. coli. Peptide T and analogue 505 (D-Ser-Ser-D-Thr-Thr-D-Thr-Thr-Tyr-D-Thr) were resuspended in Hank's Balanced Salt Solution (HBSS).
To 100µl of 500-1000U/ml of TNF was added 10µl of peptide and after 5 min 100µl of 1x10^7 neutrophils/ml was added. The cells further incubated at 37°C/20 min and then tested for chemiluminescence activity. In some cases an agonist such as fMLP (10^-7M) was added. Chemiluminescence was measured in a luminometer (LKB). The results for Peptide T are presented in Figure 12 as peak rate of CL release. Lucigenin-dependent chemiluminescence was measured: this represents superoxide measurement. In another set of experiments the effects of analogue 505 on the LPS-induced neutrophil chemiluminescence were examined. In this case the LPS was essentially substituted for the TNF. The concentration of LPS was 0.005µg/ml.

The subject of a further data set is HIV. As to conditions: 100 nM Peptide T; cited from earlier work.
For data set [3] the following is noted: patients with AIDS; Phase I (USC) and Phase II (Fenway Clinic); cited from earlier work.
The mark [4] stands for this setting: t3hrs, LPS 250 µg, 2.5 mg Peptide T i.p. at 30 minutes intervals.

`C[C@@H](N)C(=O)N[C@@H](CO)C(=O)N[C@H](C(=O)N[C@H](C(=O)N[C@H](C(=O)N[C@@H](CC(N)=O)C(=O)N[C@@H](Cc1ccc(O)cc1)C(=O)N[C@H](C(N)=O)[C@@H](C)O)[C@@H](C)O)[C@@H](C)O)[C@@H](C)O` [Peptide T, D-Ala-Ser-Thr-Thr-Thr-Asn-Tyr-Thr-NH2]: the General well being result in the data set with LPS (t0 (baseline)) is “-”; in the data set with LPS (setting [4]), “+”. The Secretion from eyes entry with LPS (t0 (baseline)) was “-”; in the data set with LPS (setting [4]) it was “+”. In addition, the Diarrhoea entry is reported as “-” with LPS (t0 (baseline), LPS 250 µg at time zero) and “+” in the data set with LPS (setting [4]). Further, the “expression of tissue factor on endothelial cells” value in data set [1] is “inhibited”. In addition, the TNFα with TNFα (PBMC+Con A (6.25µg/ml)+Peptide T 10^-9M, 48 hours, PBMC+Con A alone 69.0 ± 6.9) is given as 47.0 ± 0.1 fmol/100ul; in the data set on TNFα (PBMC+RPMI+Peptide T, no Con A, 48 hours), less than 1 fmol/100ul; in the data set on TNFα (RPMI+Peptide T (no cells), Peptide T 10^-9M), less than 1 fmol/100ul. The compound also came in with a peak plasma concentrations in data set [2] of 55 nM. Further, in the data set on PBMC, the “growth of lymphocytes in a mixed lymphocyte reaction” value was “did not affect”. Further, in the data set with K562 target cells (Peptide T added concurrently with target cells or every day of the culture), the “cytotoxicity of activated MO/MAC” value is “able to inhibit”. In addition, the “ability of resting MO/MAC to be activated” value with K562 target cells (Peptide T added concurrently with the activators) is “did not affect”. Besides, the “concentration below which cytotoxicity returned to control levels” value with K562 cells (Figure 8) is listed as “below 1x10^-15 M”. Besides, the “concentration still able to block MO/MAC SN mediated lysis of K562” value in the data set on K562 cells (SN at final dilution of 1:6) worked out at 0.1 pM. Moreover, the “[IL-1]” value is 3.8 ± 0.12 fmol/100µl and 4.2 ± 0.07 fmol/100µl and 4.6 ± 0.11 fmol/100µl and 4.7 ± 0.05 fmol/100µl and 4.2 ± 0.02 fmol/100µl and 4.2 ± 0.26 fmol/100µl and 4.33 ± 0.003 fmol/100µl and 4.6 ± 0.02 fmol/100µl in the data set on IL-1 (post-Peptide T); 3.5 ± 0.14 fmol/100µl and 5.23 ± 0.17 fmol/100µl and 4.1 ± 0.01 fmol/100µl and 4.1 ± 0.03 fmol/100µl and 3.7 ± 0.03 fmol/100µl and 4.2 ± 0.14 fmol/100µl and 3.9 ± 0.13 fmol/100µl and 4.35 ± 0.06 fmol/100µl in the data set with IL-1 (pre-Peptide T (baseline)). In addition, the “activation of human neutrophils by TNF” value in the data set with human neutrophils is “inhibits activation of human neutrophils by TNF”. Moreover, the “reduction of reverse transcriptase” value in the data set with HIV is “ninefold reduction”. The HIV-induced neurocognitive impairment entry in [3] was “improvement”.
